16 compounds from patent publication US8940742B2, “Heterocyclic compounds and uses thereof” (Infinity Pharmaceuticals, Inc., priority 2012, dated 2015) can be followed below.

For one test, the target named is T1, PI3K α (Homo sapiens, UniProt P42336).
T1 construct: purchased Millipore
Kind of test: PI3-Kinase Promega ADP-Glo Max assay. It is filed as biochemical. The settings on record: 20 nM kinase, 3 mM ATP, 500 uM diC8-PtdInsP. The procedure:
(§1) Promega ADP-Glo Max assay kit (Cat. No. V7002) was utilized to determine IC50 values for α, β, δ and γ isoforms of human Class I PI3 kinases (Millipore). Samples of kinase (20 nM α or δ, 40 nM β or γ isoform) were incubated with compound for 15 minutes at room temperature in reaction buffer (15 mM HEPES pH 7.4, 20 mM NaCl, 1 mM EGTA, 0.02% Tween 20, 10 mM MgCl2, 0.2 mg/mL bovine-γ-globulins) followed by addition of ATP/diC8-PtdInsP mixture to give final concentrations of 3 mM ATP and 500 uM diC8-PtdInsP. Reactions were incubated at room temperature for 2 hours followed by addition of 25 uL of stop solution. After a 40-minute incubation at room temperature, 50 uL of Promega detection mix was added followed by incubation for 1 hour at room temperature. Plates were then read on Envision plate reader in luminescence mode. Data was converted to % inhibition using the following equation below:
(§2) [formula] where S is the sample luminescence, Pos is a positive control without added PI3K, Neg is the negative control without added compound. Data was then plotted as % inhibition vs compound concentration. Data fit to 4 parameter logistic equation to determine IC50 values: […]
(§3) Certain compounds provided herein were tested in PI3-Kinase Promega Assay using procedures as described above to determine IC50 values for α, β, δ and/or γ isoforms.
For orientation: ADP-Glo first removes unused ATP, then detects ADP through luciferase.

For the next test, the target named is T2, PI3K β (Homo sapiens, UniProt P42338).
T2 construct: purchased Millipore
T2 sequence (P42338 whole entry): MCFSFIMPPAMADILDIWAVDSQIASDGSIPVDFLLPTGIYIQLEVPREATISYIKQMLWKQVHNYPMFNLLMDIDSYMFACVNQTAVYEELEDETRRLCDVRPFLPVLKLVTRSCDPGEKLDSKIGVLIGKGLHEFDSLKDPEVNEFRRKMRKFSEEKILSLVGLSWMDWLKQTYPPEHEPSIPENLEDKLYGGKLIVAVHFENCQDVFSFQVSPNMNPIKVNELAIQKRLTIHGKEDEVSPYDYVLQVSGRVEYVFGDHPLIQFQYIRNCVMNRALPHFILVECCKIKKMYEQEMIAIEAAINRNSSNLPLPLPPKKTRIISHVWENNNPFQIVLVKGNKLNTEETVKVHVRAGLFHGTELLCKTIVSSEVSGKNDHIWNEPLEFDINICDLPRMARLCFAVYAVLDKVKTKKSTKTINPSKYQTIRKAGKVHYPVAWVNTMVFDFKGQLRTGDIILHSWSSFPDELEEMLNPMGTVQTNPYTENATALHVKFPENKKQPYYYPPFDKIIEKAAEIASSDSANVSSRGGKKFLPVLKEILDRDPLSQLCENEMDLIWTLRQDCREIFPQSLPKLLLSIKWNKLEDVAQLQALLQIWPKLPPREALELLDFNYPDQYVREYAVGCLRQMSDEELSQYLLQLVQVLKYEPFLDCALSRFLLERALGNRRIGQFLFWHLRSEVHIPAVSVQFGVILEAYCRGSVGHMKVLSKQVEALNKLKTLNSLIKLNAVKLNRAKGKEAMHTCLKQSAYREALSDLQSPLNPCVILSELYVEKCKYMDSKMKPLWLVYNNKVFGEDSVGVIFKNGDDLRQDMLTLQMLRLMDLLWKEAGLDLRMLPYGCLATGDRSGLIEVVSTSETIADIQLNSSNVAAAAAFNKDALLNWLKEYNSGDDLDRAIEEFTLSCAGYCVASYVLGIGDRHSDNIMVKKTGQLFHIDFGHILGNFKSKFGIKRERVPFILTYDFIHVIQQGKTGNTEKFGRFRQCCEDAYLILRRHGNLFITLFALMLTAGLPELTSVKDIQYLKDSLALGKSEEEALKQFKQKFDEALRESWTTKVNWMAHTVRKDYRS
T2 sequence (P27986 whole entry partner): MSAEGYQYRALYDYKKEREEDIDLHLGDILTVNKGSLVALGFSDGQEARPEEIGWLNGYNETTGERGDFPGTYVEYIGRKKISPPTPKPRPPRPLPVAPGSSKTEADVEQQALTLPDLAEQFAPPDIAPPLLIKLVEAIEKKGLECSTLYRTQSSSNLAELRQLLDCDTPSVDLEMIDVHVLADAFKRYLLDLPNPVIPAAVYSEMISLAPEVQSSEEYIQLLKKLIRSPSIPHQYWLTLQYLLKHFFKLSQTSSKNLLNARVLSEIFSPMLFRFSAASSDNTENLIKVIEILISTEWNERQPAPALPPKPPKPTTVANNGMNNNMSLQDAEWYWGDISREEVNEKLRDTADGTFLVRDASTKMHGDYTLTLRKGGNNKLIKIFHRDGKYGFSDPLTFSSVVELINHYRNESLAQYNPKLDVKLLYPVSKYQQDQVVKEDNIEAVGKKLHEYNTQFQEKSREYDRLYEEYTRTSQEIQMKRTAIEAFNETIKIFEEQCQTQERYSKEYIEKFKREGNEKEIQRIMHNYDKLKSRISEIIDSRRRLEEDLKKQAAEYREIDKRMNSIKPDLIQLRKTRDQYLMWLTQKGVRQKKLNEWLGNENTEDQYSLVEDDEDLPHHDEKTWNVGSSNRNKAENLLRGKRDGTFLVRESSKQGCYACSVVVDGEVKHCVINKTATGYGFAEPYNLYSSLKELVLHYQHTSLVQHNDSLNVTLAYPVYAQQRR
Kind of test: PI3-Kinase Promega ADP-Glo Max assay. The format is biochemical. Conditions: 40 nM kinase, 3 mM ATP, 500 uM diC8-PtdInsP. The procedure: as §1, §2, §3

The next test deals with T3, PI3K δ (Homo sapiens, UniProt O00329).
T3 construct: purchased Millipore
T3 sequence (O00329 whole entry): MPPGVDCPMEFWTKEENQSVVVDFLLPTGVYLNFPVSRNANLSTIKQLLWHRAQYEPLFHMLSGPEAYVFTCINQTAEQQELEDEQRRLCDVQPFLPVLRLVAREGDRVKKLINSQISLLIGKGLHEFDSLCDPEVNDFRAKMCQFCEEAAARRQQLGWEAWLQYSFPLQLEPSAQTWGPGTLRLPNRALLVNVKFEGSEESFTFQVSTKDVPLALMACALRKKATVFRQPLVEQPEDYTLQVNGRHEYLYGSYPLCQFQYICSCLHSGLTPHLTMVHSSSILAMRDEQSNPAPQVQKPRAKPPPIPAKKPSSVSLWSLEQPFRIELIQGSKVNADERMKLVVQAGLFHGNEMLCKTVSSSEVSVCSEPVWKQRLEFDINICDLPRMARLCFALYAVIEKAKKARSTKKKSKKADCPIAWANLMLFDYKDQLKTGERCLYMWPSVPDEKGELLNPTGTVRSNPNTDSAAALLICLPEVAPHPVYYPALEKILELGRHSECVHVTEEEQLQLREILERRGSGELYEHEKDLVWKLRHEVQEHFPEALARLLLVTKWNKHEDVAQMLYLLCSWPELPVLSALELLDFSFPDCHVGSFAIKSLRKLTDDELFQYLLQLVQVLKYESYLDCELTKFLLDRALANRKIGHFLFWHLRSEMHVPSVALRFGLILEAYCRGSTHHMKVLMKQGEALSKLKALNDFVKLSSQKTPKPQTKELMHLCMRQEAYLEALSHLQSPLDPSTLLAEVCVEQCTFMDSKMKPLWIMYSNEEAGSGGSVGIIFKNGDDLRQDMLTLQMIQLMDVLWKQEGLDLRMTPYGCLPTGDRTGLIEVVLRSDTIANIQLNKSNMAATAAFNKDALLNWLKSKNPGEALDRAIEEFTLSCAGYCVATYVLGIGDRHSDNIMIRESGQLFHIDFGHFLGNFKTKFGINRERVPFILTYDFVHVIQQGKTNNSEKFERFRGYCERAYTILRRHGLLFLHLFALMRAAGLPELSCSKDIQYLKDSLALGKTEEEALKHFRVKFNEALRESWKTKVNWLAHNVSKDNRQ
T3 sequence (P27986 whole entry partner): as the sequence (P27986 whole entry partner) above
In words: PI3-Kinase Promega ADP-Glo Max assay. It is filed as biochemical. The settings on record: 20 nM kinase, 3 mM ATP, 500 uM diC8-PtdInsP. The method, then: as §1, §2, §3

The target in a further test is RAJI p110 δ (Homo sapiens, UniProt O00329). In words: RAJI p110 δ cellular assay (phospho-AKT).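 Also: potency based on lowered phosphorylated AKT in RAJI cells, as a readout of PI3K-δ dependent B-cell receptor signaling.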
RAJI p110 δ, sequence (O00329 whole entry): as the sequence (O00329 whole entry) above
RAJI p110 δ, sequence (P27986 whole entry partner): as the sequence (P27986 whole entry partner) above
The target of a further test is T4, Raw264.7 p110 γ (Mus musculus, UniProt Q9JHG7).
T4 construct: reduction of phospho-AKT in stimulated RAW 264.7 cells; endogenous in cells; host or cells: RAW264.7 macrophages
Kind of test: Raw264.7 p110 γ cellular assay (phospho-AKT). It is filed as cell-based. Conditions: serum-starved RAW264.7 cells stimulated with C5a. An excerpt:
(b) PI3K-γ Selective Assay
Briefly, serum-starved PAW264.7 cells are stimulated with a known GPCR agonist C5a. […] Cells can be treated with test compounds prior to, simultaneously with, or subsequent to the stimulation by C5a. RAW 264.7 cells respond to the complement component fragment C5a through activation of the C5a receptor, and the C5a receptor activates macrophages and induces cell migration.

The target of the next test is T5, PI3K γ (Homo sapiens, UniProt P48736).
T5 construct: purchased Millipore
T5 sequence (P48736 whole entry): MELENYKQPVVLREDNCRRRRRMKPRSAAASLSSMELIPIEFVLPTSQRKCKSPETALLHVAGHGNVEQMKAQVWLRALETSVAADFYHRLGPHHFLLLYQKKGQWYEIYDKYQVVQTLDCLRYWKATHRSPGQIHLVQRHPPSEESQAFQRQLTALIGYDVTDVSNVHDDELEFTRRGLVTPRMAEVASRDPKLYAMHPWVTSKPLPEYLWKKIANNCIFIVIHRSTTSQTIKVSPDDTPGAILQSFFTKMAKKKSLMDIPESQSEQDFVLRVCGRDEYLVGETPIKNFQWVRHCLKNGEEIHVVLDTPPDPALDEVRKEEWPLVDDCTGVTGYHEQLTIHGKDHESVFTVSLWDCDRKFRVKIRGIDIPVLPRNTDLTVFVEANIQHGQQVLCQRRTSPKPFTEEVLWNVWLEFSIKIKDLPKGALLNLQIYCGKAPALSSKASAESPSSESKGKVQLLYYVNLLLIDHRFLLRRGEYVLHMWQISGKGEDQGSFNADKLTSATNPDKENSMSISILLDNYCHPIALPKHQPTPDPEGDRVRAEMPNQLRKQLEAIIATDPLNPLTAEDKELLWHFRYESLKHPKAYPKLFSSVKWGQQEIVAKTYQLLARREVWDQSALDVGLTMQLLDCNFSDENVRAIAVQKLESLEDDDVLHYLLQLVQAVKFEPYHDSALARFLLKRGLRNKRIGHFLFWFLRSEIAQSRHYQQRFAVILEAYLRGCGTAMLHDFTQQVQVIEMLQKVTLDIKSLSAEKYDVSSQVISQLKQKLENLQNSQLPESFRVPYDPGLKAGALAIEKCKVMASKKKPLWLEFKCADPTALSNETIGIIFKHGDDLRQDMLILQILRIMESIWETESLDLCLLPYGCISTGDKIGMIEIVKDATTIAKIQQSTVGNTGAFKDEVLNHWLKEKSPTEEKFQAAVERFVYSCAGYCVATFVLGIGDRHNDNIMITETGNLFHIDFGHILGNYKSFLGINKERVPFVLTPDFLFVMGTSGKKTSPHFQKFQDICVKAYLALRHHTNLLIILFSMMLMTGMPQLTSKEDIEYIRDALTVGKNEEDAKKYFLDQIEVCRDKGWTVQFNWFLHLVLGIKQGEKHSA
Kind of test: PI3-Kinase Promega ADP-Glo Max assay. The format is biochemical. Conditions: 40 nM kinase, 3 mM ATP, 500 uM diC8-PtdInsP. The method, then:
Promega ADP-Glo Max assay kit (Cat. No. V7002) was utilized to determine IC50 values for α, β, δ and γ isoforms of human Class I PI3 kinases (Millipore). […] Reactions were incubated at room temperature for 2 hours followed by addition of 25 uL of stop solution. After a 40-minute incubation at room temperature, 50 uL of Promega detection mix was added followed by incubation for 1 hour at room temperature. Plates were then read on Envision plate reader in luminescence mode. Data was converted to % inhibition using the following equation below:
[formula] where S is the sample luminescence, Pos is a positive control without added PI3K, Neg is the negative control without added compound. Data was then plotted as % inhibition vs compound concentration.
as §3

The structures appear in SMILES notation.

Description for RAJI p110 δ: (a) PI3K-δ Selective Assay
Reduction of phospho-AKT is indicative of compounds that may inhibit B-cell proliferation and function in certain diseases.

As to `C[C@H](NC(=O)c1c(N)nn2cccnc12)c1cc2cccc(Cl)c2c(=O)n1-c1ccccc1` [Compound 70], the IC50 was 1 to 10 µM against PI3K α, 0.1 to 1 µM at PI3K β, 0.1 to 1 µM at PI3K δ and under 0.1 µM on RAJI p110 δ.
At Raw264.7 p110 γ, `C[C@H](NC(=O)c1nc(Br)cnc1N)c1cc2cccc(Cl)c2c(=O)n1-c1ccccc1` [Compound 15] displayed an IC50 of over 10 µM.
At Raw264.7 p110 γ, `C[C@H](NC(=O)c1cnccn1)c1cc2cccc(Cl)c2c(=O)n1-c1ccccc1` [Compound 14] came in with an IC50 of over 10 µM.
Take `C[C@H](NC(=O)c1csc2cccnc12)c1cc2cccc(Cl)c2c(=O)n1-c1ccccc1` [Compound 68]: the IC50 at Raw264.7 p110 γ and against RAJI p110 δ was 1 to 10 µM in each case.
`C[C@H](NC(=O)c1cccnc1N)c1cc2cccc(Cl)c2c(=O)n1-c1ccccc1` [Compound 3] showed an IC50 against Raw264.7 p110 γ of 1 to 10 µM.
Take `C[C@H](NC(=O)c1cncc2cccnc12)c1cc2cccc(C(F)(F)F)c2c(=O)n1-c1ccccc1` [Compound 67]: the IC50 against Raw264.7 p110 γ and against RAJI p110 δ was under 0.1 µM throughout.
`C[C@H](NC(=O)c1nc(-c2cccc(S(=O)(=O)N3CCN(C)CC3)c2)cnc1N)c1cc2cccc(Cl)c2c(=O)n1-c1ccccc1` [Compound 100]: the IC50 at PI3K α, against PI3K β, against PI3K δ and on PI3K γ was 1 to 10 µM throughout.
In the case of `C[C@H](NC(=O)c1cc(-c2cccc(NS(C)(=O)=O)c2)cnc1N)c1cc2cccc(Cl)c2c(=O)n1-c1ccccc1` [Compound 306], the IC50 against PI3K α, against PI3K β, at PI3K δ and at PI3K γ was over 10 µM throughout.
With `CC(=O)Nc1ncc(-c2cccc3cc([C@H](C)NC(=O)c4c(N)nn5cccnc45)n(-c4ccccc4)c(=O)c23)s1` [Compound 247], the IC50 against PI3K α is 1 to 10 µM; against PI3K β it was over 10 µM; against PI3K δ it was 1 to 10 µM; against PI3K γ it was 0.1 to 1 µM.
With `C[C@H](NC(=O)c1c(N)nn2cccnc12)c1cc2cccc(/C=N\O)c2c(=O)n1-c1ccccc1` [Compound 226], the half-inhibitory concentration (IC50) against PI3K α was over 10 µM; at PI3K β it was over 10 µM; on PI3K δ it was 1 to 10 µM; against PI3K γ, 0.1 to 1 µM.
Regarding `C[C@H](NC(=O)c1c(N)nn2cccnc12)c1cc2cccc(N3CCN(C)CC3)c2c(=O)n1-c1ccccc1` [Compound 264], the IC50 against PI3K α, against PI3K β, against PI3K δ and at PI3K γ was over 10 µM in each case.
As for `C[C@H](NC(=O)c1c(N)oc2cccnc12)c1cc2cccc(Cl)c2c(=O)n1-c1ccccc1` [Compound 298], the IC50 was over 10 µM at PI3K α, 1 to 10 µM against PI3K β, 1 to 10 µM on PI3K δ and 1 to 10 µM against PI3K γ.
On to `CC(=O)N(C)Cc1cccc2cc([C@H](C)NC(=O)c3c(N)nn4cccnc34)n(-c3ccccc3)c(=O)c12` [Compound 232], for which the IC50 against PI3K α is over 10 µM; against PI3K β, over 10 µM; on PI3K δ it was under 0.1 µM; at PI3K γ, over 10 µM.
Take `COc1cccc2c(Br)c([C@H](C)NC(=O)c3c(N)nn4cccnc34)n(-c3ccccc3)c(=O)c12` [Compound 256]: the IC50 on PI3K α is over 10 µM; against PI3K β, over 10 µM; on PI3K δ, 1 to 10 µM; against PI3K γ, 0.1 to 1 µM.
`C[C@H](NC(=O)c1c(N)nn2cccnc12)c1cc2cccc(/C=C/c3ccccc3)c2c(=O)n1-c1ccccc1` [Compound 199]: the IC50 against PI3K α, on PI3K β, on PI3K δ and against PI3K γ was over 10 µM each time.
As to `COc1ccc(-c2cnc(N)c(C(=O)N[C@@H](C)c3cc4cccc(Cl)c4c(=O)n3-c3ccccc3)n2)cc1F` [Compound 94], the IC50 is over 10 µM on PI3K α, over 10 µM at PI3K β, 1 to 10 µM on PI3K δ and 1 to 10 µM at PI3K γ.

What is called IC50 is the concentration that gives 50% inhibition. Read a high IC50 as weaker potency.
